PubChem BioAssay (NCI)
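Where inhibition never reached the appropriate level, the endpoint shown equals the highest concentration tested. Otherwise, values were interpolated linearly from a five-concentration, 48-hour dose response in 96-well plates. Definition used: TGI = concentration required for complete inhibition of growth.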

What was measured:
Experiment in all cases: inhibition of tumour cell growth, NCI panel, 48 h
A498 renal = system: A498 renal
PC-3 prostate = system: PC-3 prostate
HOP-62 NSCLC = system: HOP-62 NSCLC
U251 CNS = system: U251 CNS
NCI-H226 lung = system: NCI-H226 lung
OVCAR-5 ovarian = system: OVCAR-5 ovarian
ACHN renal = system: ACHN renal
M14 melanoma = system: M14 melanoma
SK-MEL-28 melanoma = system: SK-MEL-28 melanoma
TK-10 renal = system: TK-10 renal
UACC-257 melanoma = system: UACC-257 melanoma
COLO 205 colon = system: COLO 205 colon
MALME-3M melanoma = system: MALME-3M melanoma
MCF7 breast = system: MCF7 breast
SN12C renal = system: SN12C renal
NCI-H460 lung = system: NCI-H460 lung
SW-620 colon = system: SW-620 colon
LOX IMVI melanoma = system: LOX IMVI melanoma
SK-OV-3 ovarian = system: SK-OV-3 ovarian
MDA-N = system: MDA-N

SMILES	TGI (A498 renal) [µM]	TGI (PC-3 prostate) [µM]	TGI (HOP-62 NSCLC) [µM]	TGI (U251 CNS) [µM]	TGI (NCI-H226 lung) [µM]	TGI (OVCAR-5 ovarian) [µM]	TGI (ACHN renal) [µM]	TGI (M14 melanoma) [µM]	TGI (SK-MEL-28 melanoma) [µM]	TGI (TK-10 renal) [µM]	TGI (UACC-257 melanoma) [µM]	TGI (COLO 205 colon) [µM]	TGI (MALME-3M melanoma) [µM]	TGI (MCF7 breast) [µM]	TGI (SN12C renal) [µM]	TGI (NCI-H460 lung) [µM]	TGI (SW-620 colon) [µM]	TGI (LOX IMVI melanoma) [µM]	TGI (SK-OV-3 ovarian) [µM]	TGI (MDA-N) [µM]
CCCCNC(=S)/N=C/c1c(O)c2ccccc2[nH]c1=O	> 10	> 10	> 10	> 10	> 10	> 10	> 10	> 10	> 10	> 10	> 10	> 10	> 10	> 10	> 10	> 10	> 10	–	–	–
CCC(=O)N/N=C(\C=C\c1cccc(O)c1)c1sc(Nc2ccc(C)cc2[N+](=O)[O-])nc1C	> 100	–	> 100	> 100	> 100	> 100	> 100	> 100	> 100	> 100	> 100	> 100	> 100	–	> 100	> 100	> 100	> 100	> 100	–
Cc1cc(Cl)ccc1C1OC(=O)c2c1ccc1ccccc21 (stereo not drawn)	> 100	–	> 100	> 100	> 100	> 100	> 100	> 100	> 100	> 100	> 100	> 100	> 100	–	> 100	> 100	> 100	> 100	> 100	–
CC(C)(C)S(=O)OC12CC3CC(CC(C3)C1)C2 (stereo not drawn)	–	–	> 100	> 100	> 100	> 100	> 100	> 100	> 100	> 100	–	> 100	> 100	–	> 100	> 100	> 100	> 100	–	–
COc1ccc(CCNC(=O)[C@H]2CCCC[C@@H]2CCO)cc1OC	> 100	> 100	> 100	> 100	> 100	> 100	> 100	> 100	> 100	> 100	> 100	> 100	–	> 100	> 100	> 100	> 100	–	> 100	–
CC1(C)O[C@@H](CBr)C[C@H](C[C@H]2C[C@@H](O)C[C@@H](CCOCc3ccccc3)O2)O1	48.6	39	42.8	> 100	35.5	38.4	57.4	50.2	69.2	38.3	37.8	54.4	35.1	46.2	79.4	87.1	> 100	71.8	33.7	–
N#Cc1c(N2CCOCC2)[nH]c(=O)c(C(c2c(Cl)cccc2Cl)c2c(O)c(C#N)c(N3CCOCC3)[nH]c2=O)c1O	> 100	37.7	79.3	30.4	37.5	31.9	29.6	42.9	32.9	32.5	34	26.7	26.8	34.2	34.5	> 100	36.8	25.6	–	–
Cc1ccc(NC(=O)C(=O)Cc2cc[n+]([O-])cc2)cc1	> 100	–	> 100	> 100	> 100	> 100	> 100	> 100	> 100	> 100	> 100	> 100	> 100	–	> 100	> 100	> 100	> 100	> 100	–
O=C(CC1C(=O)c2ccccc2C1=C1C(=O)c2ccccc2C1=O)c1ccccc1 (stereo not drawn)	> 100	–	> 100	> 100	> 100	> 100	> 100	> 100	> 100	> 100	> 100	> 100	> 100	–	> 100	> 100	> 100	> 100	> 100	–
CN(C)Cc1cc(C(C)(C)C)cc(C2CCCCC2)c1O	–	26.4	40	27.4	31.2	34.9	28.9	> 100	26.3	29.1	21.8	27.2	17.9	36.4	29.9	38.3	30.2	28.5	28.7	–
CCOC(OC1=C(C#N)CCCC1)C(C)[Se]c1ccccc1 (stereo not drawn)	> 100	–	> 100	32	> 100	> 100	> 100	> 100	71.6	> 100	> 100	> 100	> 100	–	89.9	> 100	–	30.5	> 100	–
N#Cc1nc(COCCOCc2ccc(F)cc2)oc1N	> 100	> 100	> 100	> 100	> 100	> 100	> 100	> 100	> 100	> 100	> 100	> 100	–	> 100	> 100	> 100	> 100	> 100	> 100	–
NCc1cc(O)c(O)c(O)c1	> 100	–	> 100	> 100	> 100	> 100	> 100	> 100	> 100	> 100	> 100	> 100	> 100	–	> 100	> 100	> 100	> 100	> 100	–
O=C1NC2(CCN(CCCC3(c4ccc(F)cc4)OCCO3)CC2)Oc2ccccc21	80.5	–	> 100	> 100	> 100	> 100	> 100	> 100	> 100	> 100	> 100	> 100	> 100	> 100	> 100	> 100	> 100	> 100	> 100	–
CCC1CN2CCC3(c4ccccc4)CC(C(=O)OC)=CC1C23 (stereo not drawn)	33.9	–	38.4	30	36.2	20.6	30.4	28.2	31.5	58.6	32	31.1	29.7	–	30.4	32.5	31.8	28.3	26.5	–
CC(=O)ON(C(C)=O)c1ccc(-c2nc3ccccc3s2)cc1C	16.9	> 100	> 100	> 100	> 100	55.2	> 100	> 100	> 100	> 100	> 100	> 100	> 100	–	> 100	> 100	> 100	> 100	–	> 100
Cc1cccc2c(=O)c3cccc([C@@H](C)C(=O)O)c3oc12	> 100	> 100	> 100	> 100	> 100	–	> 100	> 100	> 100	> 100	> 100	> 100	–	–	> 100	> 100	> 100	> 100	> 100	> 100
Cc1ccccc1N=NC(C(=O)c1ccccc1)C(=O)c1ccccc1	> 100	–	70.6	> 100	32.2	81.2	> 100	39.1	> 100	> 100	> 100	> 100	> 100	–	58	–	> 100	–	88.4	–
N#Cc1sc2c(c1O)c(=O)n(-c1ccccc1)c(=S)n2-c1ccccc1	–	–	–	> 100	> 100	> 100	> 100	> 100	> 100	> 100	> 100	> 100	> 100	> 100	> 100	> 100	> 100	> 100	–	> 100
O=[N+]([O-])c1cccc(C2=NOC3C4CCC(C4)C23)c1 (stereo not drawn)	> 100	–	> 100	> 100	> 100	> 100	> 100	> 100	> 100	> 100	> 100	> 100	> 100	–	> 100	> 100	> 100	–	> 100	–
CC(CCCOC(c1ccccc1)(c1ccccc1)c1ccccc1)OC(=O)Nc1ccccc1 (stereo not drawn)	–	–	28.1	26.8	25.6	26.8	26.5	27.2	28.7	34.7	28.8	32.3	29.6	–	24.4	24.8	27.4	25.3	27.2	–
CC(=O)c1cc(C)n2c1CS[C@@H]2c1ccccc1	> 100	> 100	> 100	92.7	> 100	> 100	> 100	> 100	> 100	> 100	> 100	29	> 100	> 100	> 100	–	> 100	> 100	> 100	–
C[N+](C)=c1nc(N2CCc3ccccc3C2)ss1	> 100	–	> 100	> 100	> 100	–	> 100	> 100	> 100	> 100	> 100	> 100	> 100	–	> 100	> 100	> 100	–	> 100	–
C=CCN1CN(c2ccccc2)C2(CCN(CCCC3(c4ccc(F)cc4)OCCO3)CC2)C1=O	–	31.7	36	29.4	36.2	23.8	48.3	30.6	30.8	33.5	33.3	37.9	30.6	30.5	32	–	36.9	34.5	43.3	–
COc1ccc2c(c1)CCC(OS(=O)(=O)CC13CCC(CC1=O)C3(C)C)C2=O (stereo not drawn)	39.1	–	70.8	43.1	65.2	> 100	> 100	> 100	> 100	95.9	> 100	91.9	> 100	–	35.2	38.6	69.7	32.1	–	–
CC(C)(C)OC(=O)N(CCCCNCc1ccc2ccccc2c1)CCCNCc1ccc2ccccc2c1	3.47	4.06	3.87	3.49	3.08	3.22	3.39	–	3.39	3.07	3.42	2.72	–	–	3.32	2.18	3.54	–	3.56	–
Cc1ccc(S(=O)(=O)c2c(N)n(CCN(C)C)c3nc4ccccc4nc23)cc1	–	–	–	> 100	> 100	> 100	> 100	> 100	> 100	> 100	> 100	> 100	> 100	–	> 100	> 100	–	–	> 100	–
c1ccc(CC2(c3cc4ccccc4[nH]3)OCCO2)nc1	> 100	> 100	> 100	> 100	> 100	> 100	> 100	> 100	> 100	> 100	> 100	> 100	> 100	–	> 100	> 100	> 100	> 100	> 100	> 100
